# Values quoted from earlier work, collected in patent US20250353873A1, “COMPOUNDS AND METHODS FOR MODULATING APOE EXPRESSION” (Ionis Pharmaceuticals, Inc., priority 2024, published 2025).
# e = 2'-O-(2-methoxyethyl) (MOE); k = constrained ethyl (cEt); d = 2'-deoxy (DNA)
# Test system: BJAB cells
# Conditions: known behaviour in the assay; cited from earlier work
row,Substance,responder class for CCL22 release in the BJAB assay (internal standard)
1,"Compound No. 104838: 5-10-5 MOE gapmer, GCTGATTAGAGAGAGGTCCC, internal standard (negative control) (sugars from the 5' end e5 d10 e5, backbone and methylation of C not given here)",non-responder (non-inflammatory)
2,"Compound No. 735746: 3-10-3 cEt gapmer, TTCAAGGTGAACTGTT, internal standard (sugars from the 5' end k3 d10 k3, backbone and methylation of C not given here)",moderate responder (mildly inflammatory)
